Legend:
SH-SY5Y cells [1] = test: LDH release, 6-OHDA-induced toxicity; settings: 100 μM 6-OHDA, 24 h
MAO-B [2] = target: T1, MAO-B (Mus musculus, UniProt Q8BW75); test: In vitro MAO inhibition in mouse brain homogenate, benzylamine substrate; type: biochemical; settings: substrate of MAO B, control mouse brain homogenates
T1 construct: Brain homogenates from male Swiss mice were first characterized in terms of their MAOs activity; from tissue; host or cells: whole brain homogenate of male Swiss mice
T1 sequence (Q8BW75 1-520): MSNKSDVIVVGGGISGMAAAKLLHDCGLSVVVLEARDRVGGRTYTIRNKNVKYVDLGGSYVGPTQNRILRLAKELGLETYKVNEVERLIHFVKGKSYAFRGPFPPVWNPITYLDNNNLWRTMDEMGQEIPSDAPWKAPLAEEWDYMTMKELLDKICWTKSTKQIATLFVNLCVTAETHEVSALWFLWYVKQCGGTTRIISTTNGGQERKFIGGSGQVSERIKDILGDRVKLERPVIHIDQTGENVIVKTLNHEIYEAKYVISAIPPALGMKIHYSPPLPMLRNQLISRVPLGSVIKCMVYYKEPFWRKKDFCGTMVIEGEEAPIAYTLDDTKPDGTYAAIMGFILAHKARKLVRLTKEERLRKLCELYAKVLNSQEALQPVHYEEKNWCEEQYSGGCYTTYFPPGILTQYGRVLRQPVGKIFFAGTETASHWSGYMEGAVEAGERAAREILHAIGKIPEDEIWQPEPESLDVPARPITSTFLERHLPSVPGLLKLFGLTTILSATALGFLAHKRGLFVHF

Swiss mice [3] = test: Locomotor activity test; type: in vivo, mouse
MAO-A/B = test: In vitro MAO inhibition in mouse brain homogenate, p-tyramine substrate; type: biochemical; settings: 50 μM compound, homogenate from nontreated mice
[4] = In vitro permeability, rat intestine in diffusion chambers; type: in vitro ADME
5-HT1A receptor = target: T2, 5-HT1A receptor (Rattus norvegicus, UniProt P19327); test: [3H]-8-OH-DPAT radioligand binding assay, rat cortex membranes; settings: for Ki: [3H]-8-OH-DPAT binding, means ±SEM
T2 construct: from tissue; host or cells: rat (male Wistar) brain cortex membranes
T2 sequence (P19327 1-422): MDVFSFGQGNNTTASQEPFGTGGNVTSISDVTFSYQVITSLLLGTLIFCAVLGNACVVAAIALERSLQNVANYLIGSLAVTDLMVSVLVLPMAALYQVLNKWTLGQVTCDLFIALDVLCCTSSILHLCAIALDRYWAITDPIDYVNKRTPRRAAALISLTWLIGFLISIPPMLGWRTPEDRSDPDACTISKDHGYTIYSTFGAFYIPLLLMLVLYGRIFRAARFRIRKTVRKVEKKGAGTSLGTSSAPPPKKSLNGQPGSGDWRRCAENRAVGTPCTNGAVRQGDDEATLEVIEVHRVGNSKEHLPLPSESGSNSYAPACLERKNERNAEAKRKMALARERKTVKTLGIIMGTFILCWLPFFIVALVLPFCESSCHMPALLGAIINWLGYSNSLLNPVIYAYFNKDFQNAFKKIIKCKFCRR

[5] = Chemical stability and photoisomerization by proton NMR in D2O; type: physicochemical; settings: hydrochloride salts, more than 1 year at room temperature protected from sunlight, 1H NMR in D2O
Experimental: Possible chemical instability and photoisomerization of E/Z isomers were also addressed as these are known liabilities of stilbene derivatives.[23] Proton NMRs of 69 (cis derivative), 84 (trans derivative), and 100 (ethyl analogue) in the form of hydrochloride salts were recorded in D2O (Figures S1–S3). […] The samples dissolved in the NMR tubes were then left on the benchtop exposed to natural daylight for 7 days, which could induce photoisomerization. […] Altogether, these studies imply reasonable stability of the compounds.
Figure S2. […] Compound 84 (trans isomer, […]
hydrochloride salt) was dissolved in D2O and the spectra were recorded at time 0 h, 1 h, 24 h and 7 days. Sample was exposed to day light in between the measurement, which could induce photoisomerization and potentially also chemical degradation.
The sample was previously stored at […]

Swiss mice [6] = test: Body mass and survival during 10-day treatment; type: in vivo; settings: 0.3 mg/kg ip daily
Experimental: Figure S9. In vivo effects of chronic treatment on body mass. Body mass variation (Percent weight) (mean ±SEM) in mice throughout the 10-day i.p. treatment with 69 (0.3 mg/kg; n = 10), 100 (0.3 mg/kg; n = 8) and saline (SAL; n = 16). Data are means ±SEM. All animals survived the treatments.

SH-SY5Y cells [7] = test: MTS cytotoxicity assay; settings: 24 h, 5 μM and 10 μM
Swiss mice [8] = test: Tail suspension test; type: in vivo, mouse
Experimental: The antidepressant-like activity was screened with the widely used tail suspension test. At 30 min before the behavioral assays, the mice were treated with 6, 67, and 69 at 3 mg/kg and 10 mg/kg ip, with 69 also at 1 mg/kg and 30 mg/kg ip, or were injected with 0.9% saline as control. Imipramine (30 mg/kg ip) was used as the reference drug.
(A) Effects of acute ip treatment with 6 (3, 10 mg/kg, n = 13, 9), 67 (3, 10 mg/kg, n = 6, 10), and 69 (1, 3, 10, 30 mg/kg, n = 8, 7, 8, 6) and imipramine (30 mg/kg, n = 8) in the tail suspension test. […] (B) Effects of acute ip treatment with 6 (3, 10 mg/kg, n = 8, 8), 67 (1, 3, 6 mg/kg; n = 5, 5, 5), and 69 (1, 3, 6 mg/kg, n = 10, 5, 5) on locomotor activity of the mice. […] (C) Effects of 10-day chronic ip treatment with 69 (0.3 mg/kg, daily; n = 10) in the tail suspension test. Data are mean values ± SEM of the immobility time, compared to control mice (n = 8): ∗∗, p < 0.01 (unpaired t-test). […]
quality control sample every seven test samples. The absolute matrix effect was checked by comparing the analyte responses in the standard solutions to the samples spiked in the tissue incubation medium from the control experiment without the analyte, and a deviation of less than ±20% was deemed acceptable.
4.2.10In vitro radioligand binding assay
Rats were humanely killed by decapitation and their brains were removed, washed and rapidly dissected on ice. Homogenisation was performed using a homogeniser (PRO Scientific Inc) at 30,000 rpm for 1 min. For 5-HT1A binding assays, the cortex tissues were homogenised in 30 volumes/weight ice-cold 50 mM Tris–HCl buffer (pH 7.4), and the homogenate was centrifuged at 40,000× g for 15 min at 0 °C to 4 °C. The resulting pellets were resuspended in 30 volumes/weight of the same buffer, and incubated at 37 °C for 20 min. The centrifugation step was repeated twice under the same conditions as described above, and the final pellets were resuspended in 30 volumes/weight 50 mM Tris–HCl buffer (pH 7.4), and stored at –80 […]
For the [3H]-8-OH-DPAT binding assay (the 5-HT1A receptor binding assay), the membranes were thawed and resuspended in 50 mM Tris–HCl (pH 7.4) with 1 mM MnCl2, to a final protein concentration of 0.5 mg/mL. The incubation was carried out at 25 °C for 1 h in a final volume of 1 mL membrane suspension in the presence of the sample assayed and with 0.2 nM [3H]-8-OH-DPAT (170.2 Ci/mmol). Serotonin was used as the positive control. Non-specific binding was determined in parallel incubations in the presence of serotonin (10 μM).
4.2.11 Tail suspension test
The tail suspension test was carried out according to the methodology proposed by Steru and co-workers.22 The mice were individually suspended by the tail from a metal hook (distance

Swiss mice [9] = test: Elevated plus maze test; type: in vivo, mouse
[10] = Thermodynamic solubility in PBS; type: physicochemical; settings: PBS (pH 7.4), 37 °C, 24 h, hydrochloride salts
Swiss mice [11] = test: Haloperidol-induced catalepsy test; type: in vivo, mouse
MAO-B [12] = target: T1, MAO-B; test: Ex vivo MAO inhibition in brain homogenates of treated mice, benzylamine substrate; settings: 10 days 0.3 mg/kg ip, with or without haloperidol, two-way ANOVA
hMAO-A = target: T3, hMAO-A (Homo sapiens, UniProt P21397); test: hMAO-A inhibition, HRP–Amplex Red coupled fluorimetric assay; type: biochemical; settings: supplement csv; RA at 100 micromolar
T3 construct: purchased Sigma Aldrich; host or cells: baculovirus-infected insect cells (BTI-TN-5B1-4)
T3 sequence (P21397 1-527): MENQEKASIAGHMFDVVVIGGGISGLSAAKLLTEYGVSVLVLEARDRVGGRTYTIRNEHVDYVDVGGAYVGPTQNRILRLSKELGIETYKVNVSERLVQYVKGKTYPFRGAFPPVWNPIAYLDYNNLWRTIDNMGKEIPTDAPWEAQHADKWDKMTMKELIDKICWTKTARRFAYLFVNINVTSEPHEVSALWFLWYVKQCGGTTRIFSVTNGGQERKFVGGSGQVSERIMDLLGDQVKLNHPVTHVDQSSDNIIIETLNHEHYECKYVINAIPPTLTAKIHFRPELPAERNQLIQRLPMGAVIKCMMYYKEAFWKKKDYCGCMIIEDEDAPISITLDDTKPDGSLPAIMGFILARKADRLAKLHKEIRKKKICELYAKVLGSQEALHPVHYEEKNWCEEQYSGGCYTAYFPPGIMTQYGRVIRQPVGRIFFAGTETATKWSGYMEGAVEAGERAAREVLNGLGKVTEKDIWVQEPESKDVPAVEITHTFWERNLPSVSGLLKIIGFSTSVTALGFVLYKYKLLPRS

Swiss mice [13] = test: Hole–board test

## NCCc1cc(O)c(O)cc1O [6-OHDA, 6-hydroxydopamine]
SH-SY5Y cells [1]
  LDH release vs control: 135%

## NCc1ccccc1 [Benzylamine]
MAO-B [2]
  K0.5: 0.268 ± 0.017 mM

## C#CCN1CCC(/C=C\c2cccc(F)c2)CC1 [Compound 69, (Z)-4-(3-Fluorostyryl)-1-(prop-2-yn-1-yl)piperidine]
Swiss mice [3]; 10-day treatment, 0.3 mg/kg, 5-min session
  locomotor activity: 598.3 ±14.7 counts
Swiss mice [3]; 10-day, 0.3 mg/kg ip daily
  effects in the locomotor activity test, chronic low dose: No significant effects
Swiss mice [3]; acute 3 mg/kg ip
  locomotion: not altered
MAO-A/B
  residual activity, p-tyramine (0.5 mM), in vitro: 31.3 ± 0.2%
[4]; male, Sprague-Dawley, pH 7.4, rat intestine, 50 μM donor, mean ± SEM, read-out: apparent permeability coefficient, absorptive direction
  Papp A→B at 50 µM: 10.8 ± 1.3 ×10⁻⁶ cm/s
[4]; male, Sprague-Dawley, pH 7.4, rat intestine, 50 μM donor, mean ± SEM, read-out: apparent permeability coefficient, eliminatory direction
  Papp B→A at 50 µM: 35.4 ± 9.9 ×10⁻⁶ cm/s
[4]; rat intestine in vitro
  permeability classification: intermediate/moderate permeability
5-HT1A receptor
  Ki: 1.7 ± 0.12 µM
5-HT1A receptor; read-out: Inhibition at 300 µM
  inhibition at 300 µM: 92%
[5]
  chemical stability on storage: no signs of chemical instability
Swiss mice [6]
  body mass variations versus control mice: No significant differences
SH-SY5Y cells [7]
  cytotoxic effects: no significant cytotoxic effects
Swiss mice [8]; 10-day, 0.3 mg/kg ip daily
  immobility time, chronic treatment: significantly decreased the immobility time
Swiss mice [8]; ip 30 min before, 6, 67 at 3 and 10 mg/kg, 69 at 1, 3, 10, 30 mg/kg, imipramine 30 mg/kg
  immobility time, acute treatment: did not decrease the immobility time
Swiss mice [9]; 10-day treatment, 0.3 mg/kg
  Time in centre (%): 28.8 ±4.5%
  Time in open arms (%): 11.8 ±3.7%
Swiss mice [9]; 10-day, 0.3 mg/kg ip daily
  effects in the elevated plus maze, chronic low dose: No significant effects
Swiss mice [9]; acute ip, 1 mg/kg
  Open arm entries (%): 15.9 ±5.1%
  Time in centre (%): 36.4 ±7.7%
  Total arm entries: 17.4 ±2.5
Swiss mice [9]; acute ip, 3 mg/kg
  Open arm entries (%): 28.0 ±2.9%
  Time in centre (%): 38.0 ±2.9%
  Time in open arms (%): 19.8 ±1.6%
  Total arm entries: 22.9 ±1.6
Swiss mice [9]; acute ip, 6 mg/kg
  Open arm entries (%): 13.3 ±1.2%
  Time in centre (%): 41.4 ±4.1%
  Time in open arms (%): 7.1 ±1.6%
  Total arm entries: 20.4 ±1.3
[10]
  thermodynamic solubility: ≥ 8.6 g/250 mL

## C#CCN1CCC(CCc2ccc(C(F)(F)F)cc2)CC1 [Compound 100, 1-(Prop-2-yn-1-yl)-4-(4-(trifluoromethyl)phenethyl)piperidine]
Swiss mice [3]; 10 days, 0.3 mg/kg ip daily
  locomotor activity: did not affect
Swiss mice [3]; acute ip doses of ≥10 mg/kg
  locomotor activities: reduced
MAO-A/B
  residual activity, p-tyramine (0.5 mM), in vitro: 59.4 ± 0.2%
Swiss mice [11]; 10-day i.p. 0.3 mg/kg daily
  latency time to descent from the bar: increased significantly
Swiss mice [11]; acute i.p. 3 mg/kg
  reversal of haloperidol-induced catalepsy: did not reverse the catalepsy
5-HT1A receptor
  Ki: 25.9 ± 1.5 µM
[5]
  chemical stability on storage: no signs of chemical instability
Swiss mice [6]
  body mass variations versus control mice: No significant differences
MAO-B [12]
  ex vivo MAO-B activity after haloperidol-induced catalepsy test: decreased MAO-B activity
hMAO-A
  IC50(MAO-A) class: na (na-not_active(RA_at_100micromolar>50%))
SH-SY5Y cells [7]
  cytotoxic effects: no significant cytotoxic effects
[10]
  thermodynamic solubility: ≥ 16.3 g/250 mL
Swiss mice [13]; 10 days, 0.3 mg/kg ip daily
  parameters of the hole–board test: did not affect
Swiss mice [13]; acute ip doses of ≥10 mg/kg
  hole–board test parameters: reduced

Source: publication PMC7307930, “Stereoselective Activity of 1-Propargyl-4-styrylpiperidine-like Analogues That Can Discriminate between Monoamine Oxidase Isoforms A and B” (Journal of Medicinal Chemistry, 2020)
